Active and inactive are the calls of the source. The calls are words filed in the database; no cut-off is given here.
Assays:
Influenza A virus [1] = experiment: Antiviral activity against Influenza A virus A/Udorn/72 H3N2 infected in MDCK cells assessed as reduction in virus-induced cytopathic effect by crystal violet staining based light-microscopic analysis; type: functional, organism-based, Influenza A virus (A/udorn/1972(H3N2))
Influenza A virus [2] = experiment: Antiviral activity against Influenza A virus A/WSN/33 H1N1 infected in MDCK cells assessed as reduction in virus-induced cytopathic effect by crystal violet staining based light-microscopic analysis; type: functional, organism-based; conditions: A/WSN/1933(H1N1)
Influenza A virus [3] = experiment: Antiviral activity against Influenza A virus A/Udorn/72 H3N2 infected in MDCK cells assessed as reduction in plaque formation by crystal violet staining based assay; type: functional, organism-based; conditions: Influenza A virus (A/udorn/1972(H3N2))
[4] = Cytotoxicity against MDCK cells after 72 hrs by crystal violet staining based spectrophotometric method; type: cell-based, Canis lupus familiaris; conditions: dog
Influenza A virus [5] = experiment: Antiviral activity against Influenza A virus (A/Hong Kong/68(H3N2)) infected in MDCK cells assessed as reduction in virus-induced cytopathic effect by crystal violet staining based light-microscopic analysis; type: functional, organism-based
[6] = target: Matrix protein 2 (Influenza A virus (A/Udorn/307/1972(H3N2)), UniProt P0DOF8); experiment: Inhibition of Influenza A virus A/Udorn/72 wild-type M2 proton channel expressed in Xenopus laevis oocytes assessed as blockade of inward currents at pH 5.5 after 2 mins by two-electrode voltage clamp assay; type: cell-based, Influenza A virus (A/udorn/1972(H3N2))
[7] = target: Matrix protein 2 (Influenza A virus (A/Udorn/307/1972(H3N2)), UniProt P0DOF8); experiment: Binding affinity to Influenza A virus A/Udorn/72 wild-type M2 proton channel by isothermal calorimetric titration; parameters: species or system Influenza A virus (A/udorn/1972(H3N2))
[8] = target: Matrix protein 2 (Influenza A virus (A/Udorn/307/1972(H3N2)), UniProt P0DOF8); experiment: Inhibition of Influenza A virus A/Udorn/72 wild-type M2 proton channel expressed in Xenopus laevis oocytes assessed as blockade of inward currents at pH 5.5 after 5 mins by two-electrode voltage clamp assay; type: cell-based, Influenza A virus (A/udorn/1972(H3N2))
[9] = target: Matrix protein 2 (Influenza A virus (A/Udorn/307/1972(H3N2)), UniProt P0DOF8); experiment: Binding affinity to Influenza A virus A/Udorn/72 wild-type M2 proton channel expressed in Xenopus laevis oocytes at pH 5.5 by two-electrode voltage clamp assay; type: cell-based, Influenza A virus (A/udorn/1972(H3N2))
Influenza A virus [10] = experiment: Antiviral activity against Influenza A virus A/Udorn/72 H3N2 infected in MDCK cells assessed as reduction in plaque size by crystal violet staining based assay; type: functional, organism-based; conditions: Influenza A virus (A/udorn/1972(H3N2))

Chain of Matrix protein 2 (Influenza A virus (A/Udorn/307/1972(H3N2)), UniProt P0DOF8) (P0DOF8 whole entry): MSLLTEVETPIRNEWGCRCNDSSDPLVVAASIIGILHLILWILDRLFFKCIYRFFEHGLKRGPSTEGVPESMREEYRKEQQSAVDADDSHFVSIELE

Row | Structure (SMILES) | EC50 (Influenza A virus [1]) [µM] | EC50 (Influenza A virus [2]) [µM] | Activity (Influenza A virus [3]) | CC50 at 72 h [4] [µM] | EC50 (Influenza A virus [5]) [µM] | IC50 [6] [µM] | Kd [7] [µM] | IC50 [8] [µM] | Kd [9] [µM] | Activity (Influenza A virus [10])
1 | C[C@H](N)C12CC3CC(CC(C3)C1)C2 | 0.06 | > 100 | Active | > 100 |  |  |  |  |  | 
2 | CC(N)C12CC3CC(CC(C3)C1)C2 (stereo unspecified) [RIMANTADINE] | 0.09 | > 100 | Active | > 100 | 0.05 |  |  |  |  | 
3 | CCC(N)(CC)C12CC3CC(CC(C3)C1)C2 | 0.41 | > 100 | Active | > 100 | 0.46 | 24.3 | 4.59 | 13.2 |  | 
4 | CCCC(N)(CCC)C12CC3CC(CC(C3)C1)C2 | 1.07 | > 100 | inactive | 57.3 | 0.45 |  | 3.43 |  | 88 | Active
5 | NC12CC3CC(CC(C3)C1)C2 [AMANTADINE] | 0.78 | > 100 | Active | > 100 |  |  |  |  |  | 
6 | C[C@@H](N)C12CC3CC(CC(C3)C1)C2 | 0.05 | > 100 | Active | > 100 |  |  |  |  |  | 
7 | CC(C)(N)C12CC3CC(CC(C3)C1)C2 | 0.01 | > 100 | Active | > 100 | 0.012 | 9.3 | 0.13 | 4 | 13 | 
8 | CCOC(=O)C1=C[C@@H](OC(CC)CC)[C@H](NC(C)=O)[C@@H](N)C1 [OSELTAMIVIR] | 0.001 | 0.03 |  | > 100 | 0.002 |  |  |  |  | 
